Measurements taken from patent US20160272635A1, “SUBSTITUTED DIHYDROPYRIDO[3,4-B]PYRAZINONES AS DUAL INHIBITORS OF BET PROTEINS AND POLO-LIKE KINASES” (BAYER PHARMA AKTIENGESELLSCHAFT, priority 2013, published 2016).
Where two headings read alike, the source gives them in different places.

Assays:
[1] = biological target: T1, BRD4 bromo domain 1 [BRD4(1)] (Homo sapiens, UniProt O60885); test: BRD4(1)/acetylated peptide H4 binding assay (TR-FRET); conditions: inhibition of interaction between BRD4(1) and acetylated histone H4 peptide
T1 construct: N-terminally His6-tagged BRD4(1) (amino acids 67-152); made in house; host or cells: E. coli
Text: To assess the BRD4(1) binding strength of the substances described in this application, the ability thereof to inhibit the interaction between BRD4(1) and acetylated histone H4 in a dose-dependent manner was quantified.
For this purpose, a time-resolved fluorescence resonance energy transfer (TR-FRET) assay was used, which measures the binding between N-terminally His6-tagged BRD4(1) (amino acids 67-152) and a synthetic acetylated histone H4 (Ac-H4) peptide with sequence GRGK(Ac)GGK(Ac)GLGK(Ac)GGAK(Ac)RHGSGSK-biotin. The recombinant BRD4(1) protein produced in-house according to Filippakopoulos et al., Cell, 2012, 149:214-231 was expressed in E. coli and purified by means of (Ni-NTA) affinity and (Sephadex G-75) size exclusion chromatography. The Ac-H4 peptide can be purchased, for example, from Biosyntan (Berlin, Germany).
In the assay, typically 11 different concentrations of each substance (0.1 nM, 0.33 nM, 1.1 nM, 3.8 nM, 13 nM, 44 nM, 0.15 μM, 0.51 μM, 1.7 μM, 5.9 μM and 20 μM) were analysed as duplicates on the same microtitre plate. For this purpose, 100-fold concentrated solutions in DMSO were prepared by serial dilutions (1:3.4) of a 2 mM stock solution into a clear, 384-well microtitre plate (Greiner Bio-One, Frickenhausen, Germany). From this, 50 n1 were transferred into a black test plate (Greiner Bio-One, Frickenhausen, Germany). The test was started by the addition of 2 μl of a 2.5-fold concentrated BRD4(1) solution (final concentration typically 10 nM in the 5 μl of reaction volume) in aqueous assay buffer [50 mM HEPES pH 7.5, 50 mM sodium chloride (NaCl), 0.25 mM CHAPS and 0.05% serum albumin (BSA)] to the substances in the test plate. This was followed by a 10-minute incubation step at 22° C. for the pre-equilibration of putative complexes between BRD4(1) and the substances.
The mixture was then incubated in the dark at 22° C. for one hour and then at 4° C. for at least 3 hours and for no longer than overnight. The formation of BRD4(1)/Ac-H4 complexes was determined by the measurement of the resonance energy transfer from the streptavidin-Eu cryptate to the anti-6His-XL665 antibody present in the reaction. For this purpose, the fluorescence emission was measured at 620 nm and 665 nm after excitation at 330-350 nm in a TR-FRET measuring instrument, for example a Rubystar or Pherastar (both from BMG Lab Technologies, Offenburg, Germany) or a Viewlux (Perkin-Elmer). The ratio of the emissions at 665 nm and at 622 nm was taken as an indicator of the amount of BRD4(1)/Ac-H4 complexes formed.
The data (ratios) obtained were normalized, with 0% inhibition corresponding to the mean from the measurements for a set of controls (typically 32 data points) in which all the reagents were present. In these, in place of test substances, 50 nl of DMSO (100%) were used Inhibition of 100% corresponded to the mean from the measurements for a set of controls (typically 32 data points) in which all the reagents except BRD4(1) were present. The IC50 was determined by regression analysis based on a 4-parameter equation (minimum, maximum, IC50, Hill; Y=Max+(Min−Max)/(1+(X/IC50)Hill).

MOLM-13 cell line = test: MOLM-13 cell proliferation assay (alamarBlue); format: cell-based; conditions: Homo sapiens; MOLM-13 cells, 96 hours incubation, inhibition of cell proliferation
Procedure: In accordance with the invention, the substances were tested for their ability to inhibit the proliferation of the MOLM-13 cell linie (Deutsche Sammlung far Mikroorganismen and Zellkulturen [German Collection of Microorganisms and Cell Cultures], ACC 554). Cell viability was determined by means of the alamarBlue® reagent (Invitrogen) in a Victor X3 Multilabel Reader (Perkin Elmer). The excitation wavelength was 530 nm and the emission wavelength […].
The MOLM-13 cells were shown at a density of 4000 cells/well in 100 μl of growth medium on 96-well microtitre plates. After overnight incubation at 37° C., the fluorescence values (CI values) were determined. The plates were then treated with various substance dilutions and incubated at 37° C. for 96 hours. Subsequently, the fluorescence values were determined (CO values). For the data analysis, the CI values were subtracted from the CO values and the results were compared between cells which had been treated with various dilutions of the substance or only with buffer solution. The IC50 values (substance concentration needed for 50% inhibition of cell proliferation) were calculated therefrom.

Plk-1 = biological target: T2, Plk-1 (Homo sapiens, UniProt P53350); test: Plk-1 enzyme assay (indirect HTRF kinase assay); format: biochemical
T2 construct: Recombinant fusion protein consisting of GST and Plk (kinase domain 33-345); MW 36 kDa; GST; made in house; host or cells: insect cells (Hi5)
T2 sequence (P53350 33-345): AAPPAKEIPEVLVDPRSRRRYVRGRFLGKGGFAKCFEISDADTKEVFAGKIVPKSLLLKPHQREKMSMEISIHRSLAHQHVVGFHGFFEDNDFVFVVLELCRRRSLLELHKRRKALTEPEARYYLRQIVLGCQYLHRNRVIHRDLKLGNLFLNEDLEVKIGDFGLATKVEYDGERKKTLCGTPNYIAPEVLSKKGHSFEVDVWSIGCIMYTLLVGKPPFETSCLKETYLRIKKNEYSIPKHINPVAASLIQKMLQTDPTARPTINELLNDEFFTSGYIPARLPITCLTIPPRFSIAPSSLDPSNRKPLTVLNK
Procedure: Recombinant fusion protein consisting of GST and Plk (kinase domain 33-345; MW 36 kDa, conc 0.8 μg/μl) expressed from insect cells (Hi5) and purified by glutathione Sepharose affinity chromatography and subsequent gel filtration (Superdex 75) is used for the kinase assay. Aliquots thereof are frozen in liquid nitrogen and stored at −80° C. and, after thawing, used only once.
The assay used is an indirect HTRF assay which employs the following materials and procedures. The substrate used for the kinase reaction is the biotinylated peptide Btn-Ahx-KKLNRTLSFAEPG-amide x TFA from Biosyntan, Sample No.: 6178.1 (C-terminus in amide form). This is an artificial sequence not derived from any known protein. 50 nl of the test compounds dissolved in 100% dimethyl sulphoxide (DMSO) (final concentrations: 0 μM and concentrations in the range of 0.001-20 μM) are pre-incubated with 2 μl Plk-1 enzyme working solution in working buffer [25 mM MgCl2; 1 mM DTT; 50 mM Hepes pH 7.0; 0.01% NP40; 1× Complete; 0.05% BSA] for 30 min. The kinase reaction is then initiated by addition of 3 μl of substrate solution [adenosine triphosphate (ATP) and 1.4 μM substrate peptide (biotin-Ttds-KKLNRTLSFAEPG-NH2)] in working buffer, and, after 30 min, stopped by addition of a stopper solution (100 mM EDTA, 100 mM Hepes pH 7.5, 800 mM potassium fluoride, 0.12% BSA, 0.4 μM SA-XLent (0.05 μM, from CIS bio international, Marcoule, France), Eu^3+ cryptate-conjugated rabbit anti-mouse IgG (1.5 nM; an anti-mouse IgG antibody labelled with europium cryptate from CIS bio international, Marcoule, France), 1 nM anti-phospho-serine kinase (a phospho-specific antibody from Upstate Biotechnology, Dundee, Scotland), and incubated at 4° C. overnight.
For the test at low ATP concentration, a 1.25 ng/μl Plk-1 working solution and 16.7 μM ATP are used, for the test at high ATP concentration, a 0.039 ng/μl Plk-1 working solution and 16.7 mM ATP are used.
The amount of phosphorylated substrate peptide is then determined by measuring the resonance energy transfer from europium-labelled antibody complex to streptavidine-XLent. To this end, the fluorescence emission at 620 nm and 665 nm is measured following excitation at 350 nm in an HTRF measuring instrument, e.g. Rubystar (BMG Labtechnologies, Offenburg, Germany) or Viewlux (Perkin-Elmer). The ratio of the emissions at 665 nm and at 620 nm is taken as a measure of the amount of phosphorylated substrate peptide. The data are normalized (enzyme reaction without inhibitor=0% inhibition, all other assay components, but no enzyme=100% inhibition), and IC50 values are calculated using a 4 parameter equation (minimum, maximum, IC50, Hill; Y=max+(min−max)/(1+(X/IC50)Hill)).

[2] = 10 μM ATP (low ATP concentration), read-out: IC50 [Plk-1] (10 μM ATP)
[3] = 10 mM ATP (high ATP concentration), read-out: IC50 [Plk-1] (10 mM ATP)

SMILES	IC50 [1]	IC50 (MOLM-13 cell line)	IC50 (Plk-1; [2])	IC50 (Plk-1; [3])
CC[C@@H]1C(=O)N(C)c2cnc(Nc3ncc(C(=O)NC4CC4)cc3C)cc2N1C1CCCC1 [Example 13, 6-{[(2R)-1-Cyclopentyl-2-ethyl-4-methyl-3-oxo-1,2,3,4-tetrahydropyrido[3,4-b]pyrazin-7-yl]amino}-N-cyclopropyl-5-methylpyridine-3-carboxamide]	434 nM	56 nM	7 nM	15 nM
COc1cc(C(=O)NC2CC2)cnc1Nc1cc2c(cn1)N(C)C(=O)[C@@H](C)N2C1CCCC1 [Example 2, 6-{[(2R)-1-Cyclopentyl-2,4-dimethyl-3-oxo-1,2,3,4-tetrahydropyrido[3,4-b]pyrazin-7-yl]amino}-N-cyclopropyl-5-methoxypyridine-3-carboxamide]	126 nM	93 nM	17 nM	
CCC1C(=O)N(C)c2cnc(Nc3ncc(C(=O)NC4CC4)cc3OC)cc2N1C1CCCC1 (centres unmarked) [Example 4, 6-[(1-Cyclopentyl-2-ethyl-1,2,3,4-tetrahydro-4-methyl-3-oxopyrido[3,4-b]pyrazin-7-yl)amino]-N-cyclopropyl-5-methoxy-3-pyridinecarboxamide]	450 nM	68 nM		31 nM
CCc1cc(C(=O)N[C@@H]2CCCCNC2=O)cnc1Nc1cc2c(cn1)N(C)C(=O)[C@@H](CC)N2C1CCCC1 [Example 9, 6-{[(2R)-1-Cyclopentyl-2-ethyl-4-methyl-3-oxo-1,2,3,4-tetrahydropyrido[3,4-b]pyrazin-7-yl]amino}-5-ethyl-N-[(3R)-2-oxoazepan-3-yl]pyridine-3-carboxamide]	343 nM	76 nM		17 nM
CC[C@@H]1C(=O)N(C)c2cnc(Nc3ncc(C(=O)NC4CCN(C)CC4)cc3OC)cc2N1C1CCCC1 [Example 14, 6-[[(2R)-1-Cyclopentyl-2-ethyl-1,2,3,4-tetrahydro-4-methyl-3-oxopyrido[3,4-b]pyrazin-7-yl]amino]-5-methoxy-N-(1-methyl-4-piperidinyl)-3-pyridinecarboxamide]	458 nM	32 nM	11 nM	29 nM
CC[C@@H]1C(=O)N(C)c2cnc(Nc3ncc(C(=O)NC(C)(C)CO)cc3OC)cc2N1C1CCCC1 [Example 11, 6-[[(2R)-1-Cyclopentyl-2-ethyl-1,2,3,4-tetrahydro-4-methyl-3-oxopyrido[3,4-b]pyrazin-7-yl]amino]-N-(2-hydroxy-1,1-dimethylethyl)-5-methoxy-3-pyridinecarboxamide]	393 nM	74 nM		57 nM
COc1cc(C(=O)NC2CCN(C)CC2)cnc1Nc1cc2c(cn1)N(C)C(=O)C(C)N2C1CCCC1 (centres unmarked) [Example 6, 6-[(1-Cyclopentyl-2,4-dimethyl-3-oxo-1,2,3,4-tetrahydropyrido[3,4-b]pyrazin-7-yl)amino]-5-methoxy-N-(1-methylpiperidin-4-yl)pyridine-3-carboxamide]	243 nM	114 nM		19 nM
CC[C@@H]1C(=O)N(C)c2cnc(Nc3ncc(C(=O)NCCOC)cc3OC)cc2N1C1CCCC1 [Example 8, 6-[[(2R)-1-Cyclopentyl-2-ethyl-1,2,3,4-tetrahydro-4-methyl-3-oxopyrido[3,4-b]pyrazin-7-yl]amino]-5-methoxy-N-(2-methoxyethyl)-3-pyridinecarboxamide]	333 nM	72 nM	9 nM	22 nM
CCc1cc(C(=O)NC2CC2)cnc1Nc1cc2c(cn1)N(C)C(=O)[C@@H](CC)N2C1CCCC1 [Example 3, 6-{[(2R)-1-Cyclopentyl-2-ethyl-4-methyl-3-oxo-1,2,3,4-tetrahydropyrido[3,4-b]pyrazin-7-yl]amino}-N-cyclopropyl-5-ethylpyridine-3-carboxamide]	199 nM	61 nM	8 nM	17 nM
CC[C@@H]1C(=O)N(C)c2cnc(Nc3ncc(C(=O)N[C@@H]4CCCCNC4=O)cc3C)cc2N1C1CCCC1 [Example 15]	496 nM	77 nM	13 nM	22 nM
CC[C@@H]1C(=O)N(C)c2cnc(Nc3ncc(C(=O)N[C@@H]4CCCCNC4=O)cc3OC)cc2N1C1CCCC1 [Example 16, 6-[[(2R)-1-Cyclopentyl-2-ethyl-1,2,3,4-tetrahydro-4-methyl-3-oxopyrido[3,4-b]pyrazin-7-yl]amino]-N-[(3R)-hexahydro-2-oxo-1H-azepin-3-yl]-5-methoxy-3-pyridinecarboxamide]	525 nM	77 nM		22 nM
